For assay [1], the target named is T1, Tyrosine-protein kinase JAK2 (Homo sapiens, UniProt O60674). Put plainly: Inhibition of JAK2 (unknown origin) at 1 uM by biochemical assay relative to control.
In assay [2] the target is T2, Tyrosine-protein kinase JAK1 (Homo sapiens, UniProt P23458). Put plainly: Inhibition of JAK1 (unknown origin) at 1 uM by biochemical assay relative to control.
Assay [3] concerns the target T3, Tyrosine-protein kinase JAK3 (Homo sapiens) (UniProt P52333).
T3 sequence (whole entry): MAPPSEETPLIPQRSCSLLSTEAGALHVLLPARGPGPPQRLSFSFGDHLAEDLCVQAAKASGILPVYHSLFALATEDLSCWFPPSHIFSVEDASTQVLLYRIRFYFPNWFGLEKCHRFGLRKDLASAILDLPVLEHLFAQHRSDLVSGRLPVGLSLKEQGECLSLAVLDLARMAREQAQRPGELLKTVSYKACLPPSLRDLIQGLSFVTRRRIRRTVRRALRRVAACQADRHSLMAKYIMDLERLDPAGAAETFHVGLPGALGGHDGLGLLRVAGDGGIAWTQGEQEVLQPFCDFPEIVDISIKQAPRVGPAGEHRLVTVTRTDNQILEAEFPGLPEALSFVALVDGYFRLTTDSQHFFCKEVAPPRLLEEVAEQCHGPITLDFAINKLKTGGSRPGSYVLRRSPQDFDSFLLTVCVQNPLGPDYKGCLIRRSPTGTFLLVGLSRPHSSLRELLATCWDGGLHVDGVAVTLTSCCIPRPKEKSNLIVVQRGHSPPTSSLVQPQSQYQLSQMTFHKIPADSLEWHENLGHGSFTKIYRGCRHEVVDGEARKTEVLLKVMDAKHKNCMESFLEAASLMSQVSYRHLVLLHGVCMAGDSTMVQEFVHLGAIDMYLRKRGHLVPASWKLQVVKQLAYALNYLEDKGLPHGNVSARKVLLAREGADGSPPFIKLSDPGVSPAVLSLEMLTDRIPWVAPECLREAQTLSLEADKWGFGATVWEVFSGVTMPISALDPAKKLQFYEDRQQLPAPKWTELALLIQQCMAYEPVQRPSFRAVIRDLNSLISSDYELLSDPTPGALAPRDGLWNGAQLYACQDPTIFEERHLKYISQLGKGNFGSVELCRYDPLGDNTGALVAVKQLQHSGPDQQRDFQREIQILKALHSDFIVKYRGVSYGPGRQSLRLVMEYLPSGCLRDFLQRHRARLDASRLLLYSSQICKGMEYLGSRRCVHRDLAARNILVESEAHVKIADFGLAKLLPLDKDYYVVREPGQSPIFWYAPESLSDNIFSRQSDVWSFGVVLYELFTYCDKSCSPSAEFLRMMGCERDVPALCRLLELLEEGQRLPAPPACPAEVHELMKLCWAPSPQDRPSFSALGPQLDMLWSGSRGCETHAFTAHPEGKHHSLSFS
The assay can be described thus: Inhibition of JAK3 (unknown origin) at 1 uM by biochemical assay relative to control.

For assay [4], the species on record is Homo sapiens. Put plainly: Selectivity index, ratio of inhibition of JAK1 (unknown origin) to inhibition of JAK2 (unknown origin).
For assay [5], the species on record is Homo sapiens. Put plainly: Selectivity index, ratio of inhibition of JAK1 (unknown origin) to inhibition of JAK3 (unknown origin).
For assay [6], the species on record is Homo sapiens. Put plainly: Selectivity index, ratio of IC50 for inhibition of JAK2 (unknown origin) to IC50 for inhibition of JAK1 (unknown origin).
Assay [7] has as its target Non-receptor tyrosine-protein kinase TYK2 (Homo sapiens) (UniProt P29597). The assay can be described thus: Inhibition of TYK2 (unknown origin) at 1 uM by biochemical assay relative to control.
Assay [8] has as its target T1, Tyrosine-protein kinase JAK2. Put plainly: Inhibition of JAK2 (unknown origin) by biochemical assay.
In assay [9] the target is T2, Tyrosine-protein kinase JAK1. Put plainly: Inhibition of JAK1 (unknown origin) by biochemical assay.

pIC50: −log10 of the molar value. Some results are limits rather than exact numbers.

Sequence of Non-receptor tyrosine-protein kinase TYK2 (Homo sapiens) (P29597 whole entry): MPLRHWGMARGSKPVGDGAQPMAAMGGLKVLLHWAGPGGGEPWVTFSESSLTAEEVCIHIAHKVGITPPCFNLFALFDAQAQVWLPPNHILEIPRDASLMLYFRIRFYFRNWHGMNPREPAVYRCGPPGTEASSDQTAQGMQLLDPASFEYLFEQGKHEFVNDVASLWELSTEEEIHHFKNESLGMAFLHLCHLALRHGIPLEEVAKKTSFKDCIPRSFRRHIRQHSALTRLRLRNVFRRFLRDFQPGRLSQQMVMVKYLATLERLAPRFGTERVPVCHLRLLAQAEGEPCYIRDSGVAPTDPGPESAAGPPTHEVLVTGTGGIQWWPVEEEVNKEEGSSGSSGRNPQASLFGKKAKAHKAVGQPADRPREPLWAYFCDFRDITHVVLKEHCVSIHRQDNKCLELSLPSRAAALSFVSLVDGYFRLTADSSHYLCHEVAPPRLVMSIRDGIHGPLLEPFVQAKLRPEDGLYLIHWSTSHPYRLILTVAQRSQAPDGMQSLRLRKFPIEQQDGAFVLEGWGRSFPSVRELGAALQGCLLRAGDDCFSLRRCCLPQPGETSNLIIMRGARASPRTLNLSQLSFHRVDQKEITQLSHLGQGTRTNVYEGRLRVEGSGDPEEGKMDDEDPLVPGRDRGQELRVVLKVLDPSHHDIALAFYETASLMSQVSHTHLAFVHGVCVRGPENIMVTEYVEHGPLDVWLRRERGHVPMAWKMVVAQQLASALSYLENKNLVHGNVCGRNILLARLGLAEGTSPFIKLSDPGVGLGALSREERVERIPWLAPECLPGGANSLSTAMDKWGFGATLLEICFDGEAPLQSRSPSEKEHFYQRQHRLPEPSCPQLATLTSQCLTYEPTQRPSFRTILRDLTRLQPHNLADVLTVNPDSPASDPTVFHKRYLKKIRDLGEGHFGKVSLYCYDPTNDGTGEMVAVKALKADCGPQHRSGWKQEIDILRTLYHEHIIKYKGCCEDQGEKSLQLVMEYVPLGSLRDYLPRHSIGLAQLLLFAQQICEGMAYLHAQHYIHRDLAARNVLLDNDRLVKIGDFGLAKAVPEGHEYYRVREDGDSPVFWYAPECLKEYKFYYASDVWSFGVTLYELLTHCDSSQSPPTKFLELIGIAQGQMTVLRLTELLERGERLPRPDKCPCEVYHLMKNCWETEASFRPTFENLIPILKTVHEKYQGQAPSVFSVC
T2 sequence (P23458 whole entry): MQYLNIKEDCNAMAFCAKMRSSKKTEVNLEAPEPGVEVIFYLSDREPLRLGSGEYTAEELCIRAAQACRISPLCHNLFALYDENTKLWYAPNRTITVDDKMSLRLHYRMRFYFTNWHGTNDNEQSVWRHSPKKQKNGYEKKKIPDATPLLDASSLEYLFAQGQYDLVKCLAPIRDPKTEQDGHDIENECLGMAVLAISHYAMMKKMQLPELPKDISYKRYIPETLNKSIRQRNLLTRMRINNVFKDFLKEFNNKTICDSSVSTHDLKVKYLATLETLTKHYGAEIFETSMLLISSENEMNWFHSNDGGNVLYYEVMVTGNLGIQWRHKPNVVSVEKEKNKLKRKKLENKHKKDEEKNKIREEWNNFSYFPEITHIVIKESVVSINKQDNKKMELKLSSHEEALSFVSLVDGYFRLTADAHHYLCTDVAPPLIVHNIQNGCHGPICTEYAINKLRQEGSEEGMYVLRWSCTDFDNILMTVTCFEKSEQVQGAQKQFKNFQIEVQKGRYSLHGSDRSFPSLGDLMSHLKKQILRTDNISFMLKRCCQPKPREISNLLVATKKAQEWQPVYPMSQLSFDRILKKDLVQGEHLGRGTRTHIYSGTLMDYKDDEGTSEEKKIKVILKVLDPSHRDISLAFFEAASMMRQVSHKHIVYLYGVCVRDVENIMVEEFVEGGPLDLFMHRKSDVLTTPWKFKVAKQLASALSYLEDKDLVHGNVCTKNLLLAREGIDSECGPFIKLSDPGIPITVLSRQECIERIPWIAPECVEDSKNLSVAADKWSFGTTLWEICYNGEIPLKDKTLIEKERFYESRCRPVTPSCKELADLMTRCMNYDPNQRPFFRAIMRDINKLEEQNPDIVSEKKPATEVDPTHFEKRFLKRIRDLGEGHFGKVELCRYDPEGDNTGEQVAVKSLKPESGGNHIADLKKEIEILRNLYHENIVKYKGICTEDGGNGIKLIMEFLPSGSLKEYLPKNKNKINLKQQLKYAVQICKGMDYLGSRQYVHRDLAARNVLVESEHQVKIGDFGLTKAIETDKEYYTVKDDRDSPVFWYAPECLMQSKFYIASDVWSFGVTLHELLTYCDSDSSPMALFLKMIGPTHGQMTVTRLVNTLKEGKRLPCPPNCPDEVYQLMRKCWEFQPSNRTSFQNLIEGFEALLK
T1 sequence (O60674 whole entry): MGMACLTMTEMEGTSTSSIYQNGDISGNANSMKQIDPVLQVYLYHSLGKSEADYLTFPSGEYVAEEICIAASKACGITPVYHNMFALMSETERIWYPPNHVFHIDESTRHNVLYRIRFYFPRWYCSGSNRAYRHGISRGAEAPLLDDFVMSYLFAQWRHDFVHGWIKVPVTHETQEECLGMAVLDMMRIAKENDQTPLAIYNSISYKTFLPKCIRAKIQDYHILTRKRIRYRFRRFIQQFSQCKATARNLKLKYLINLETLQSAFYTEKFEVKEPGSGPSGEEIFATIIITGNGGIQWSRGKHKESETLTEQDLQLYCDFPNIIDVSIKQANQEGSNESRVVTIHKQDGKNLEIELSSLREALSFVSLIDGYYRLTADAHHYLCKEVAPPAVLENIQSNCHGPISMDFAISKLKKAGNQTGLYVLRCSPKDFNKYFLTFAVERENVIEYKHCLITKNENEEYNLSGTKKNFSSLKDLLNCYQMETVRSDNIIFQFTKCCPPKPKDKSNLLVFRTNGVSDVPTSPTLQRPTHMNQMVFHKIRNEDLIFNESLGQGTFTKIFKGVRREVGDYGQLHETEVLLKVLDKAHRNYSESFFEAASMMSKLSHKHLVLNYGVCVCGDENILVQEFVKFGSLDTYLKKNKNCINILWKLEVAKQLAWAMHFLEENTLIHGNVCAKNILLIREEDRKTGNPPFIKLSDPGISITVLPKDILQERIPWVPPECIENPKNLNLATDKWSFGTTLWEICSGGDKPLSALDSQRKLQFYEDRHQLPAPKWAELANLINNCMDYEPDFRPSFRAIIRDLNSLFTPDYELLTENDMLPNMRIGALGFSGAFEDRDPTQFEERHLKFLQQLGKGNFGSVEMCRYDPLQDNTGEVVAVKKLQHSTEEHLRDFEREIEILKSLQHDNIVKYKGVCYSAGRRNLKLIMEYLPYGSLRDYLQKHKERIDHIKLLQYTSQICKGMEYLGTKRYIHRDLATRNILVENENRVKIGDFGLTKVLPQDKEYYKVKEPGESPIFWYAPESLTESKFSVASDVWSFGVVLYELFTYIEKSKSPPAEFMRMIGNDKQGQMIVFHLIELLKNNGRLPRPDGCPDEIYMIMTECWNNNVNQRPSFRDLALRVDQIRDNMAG

The term inhibition denotes the change of the read-out against control, counted positive when it falls. With `Cc1c(-c2ncnc3[nH]ccc23)nnn1Cc1ccc(C(C)(C)C)cc1`, the inhibition amounted to 15% in assay [1], 21.6% in assay [2] and 3% in assay [3].
For `Cc1c(-c2ncnc3[nH]ccc23)nnn1CCCc1ccccc1`, the inhibition in assay [1] came out at 10.7%; in assay [2], 48%; in [3] it was 11.3%. Further, the Selectivity Index in the assay filed under Homo sapiens [4] turned out to be 5; in the assay filed under Homo sapiens [5] it was 12.3.
For `Cc1c(-c2ncnc3[nH]ccc23)nnn1CCc1ccc(C(F)(F)F)cc1`, the inhibition in assay [1] was found to be 8.7%; in [2] it was 32.7%; in [3], 35%.
Turning to `Cc1c(-c2ncnc3[nH]ccc23)nnn1Cc1ccccc1`, the inhibition in assay [1] was 14%; in assay [2], 28%; in assay [3], -9%.
`Cc1c(-c2ncnc3[nH]ccc23)nnn1Cc1ccc(OC(F)(F)F)cc1`: the inhibition in assay [1] was 13%; in assay [2], 69.5%; in [3], -3.7%.
On the same counts, the results for `Cc1c(-c2ncnc3[nH]ccc23)nnn1Cc1ccc(F)cc1` are 39%, 75% and 14%.
A word on the pIC50: it is −log10 of the IC50, conventionally taken in molar units. Turning to `Cc1c(-c2ncnc3[nH]ccc23)nnn1Cc1ccc(I)cc1`, the inhibition in assay [1] stood at 54%; in assay [7], 41.3%; in [2], 94%; in assay [3], 20.3%. Also, the Ratio IC50 in the assay filed under Homo sapiens [6] turned out to be 12. Besides, the results for the pIC50 in assay [8] and in [9] were 6.08 and 7.14, respectively.
Turning to `Cc1ccc(Cn2nnc(-c3ncnc4[nH]ccc34)c2C)cc1`, the inhibition is 10% in assay [1], 74% in [2] and 6% in [3]. The Selectivity Index turned out to be 7.4 in the assay filed under Homo sapiens [4] and 12.3 in the assay filed under Homo sapiens [5].
Consider `Cc1c(-c2ncnc3[nH]ccc23)nnn1Cc1ccc(Cl)cc1`, for which the inhibition in [1] turned out to be 50%; in [7], 67%; in assay [2] it was 92%; in [3], 36%. Besides, in the assay filed under Homo sapiens [6], the Ratio IC50 was 9. For the same compound, the pIC50 was 6.02 in assay [8] and 6.97 in assay [9].
Consider `Cc1c(-c2ncnc3[nH]ccc23)nnn1Cc1ccc(C(F)(F)F)cc1`, for which the inhibition in assay [1] is 32.7%; in assay [2], 86.7%; in assay [3], -8.7%.
Consider `Cc1ccc(CCn2nnc(-c3ncnc4[nH]ccc34)c2C)cc1`, for which the inhibition in assay [2] was 12.3%; in assay [3], 4%.
With `COc1ccc(Cn2nnc(-c3ncnc4[nH]ccc34)c2C)cc1`, the inhibition in assay [1] is 3%; in assay [2], 51%; in [3] it was 5%. In addition, the results for the Selectivity Index in the assay filed under Homo sapiens [4] and in the assay listed under Homo sapiens [5] were 17 and 10.2, respectively.
`Cc1c(-c2ncnc3[nH]ccc23)nnn1Cc1ccc(S(C)(=O)=O)cc1`: the inhibition in assay [1] was found to be 8%; in assay [7] it was 2.7%; in [2] it was 76.6%; in assay [3], 20.6%. The pIC50 was below 5.00 in assay [8] and 6.41 in assay [9].
Turning to `Cc1c(-c2ncnc3[nH]ccc23)nnn1Cc1cccc(OC(F)(F)F)c1`, the inhibition in assay [2] was found to be 19.3%; in assay [3], 0%.
For `Cc1c(-c2ncnc3[nH]ccc23)nnn1Cc1ccc(Br)cc1`, the inhibition in [1] was found to be 49.3%; in assay [7], 61.6%; in [2] it was 94%; in assay [3] it was 30%. Also, the Ratio IC50 in the assay listed under Homo sapiens [6] was found to be 8. In addition, the pIC50 was 6.11 in [8] and 7.01 in [9].
Regarding `Cc1c(-c2ncnc3[nH]ccc23)nnn1CCc1ccccc1`, the inhibition in assay [1] came out at 18.7%; in assay [2] it was 12.5%; in assay [3] it was 13.3%.
The matching figures for `Cc1c(-c2ncnc3[nH]ccc23)nnn1Cc1ccc(C#N)cc1`: 15%, 69.3% and 7.3%.
Turning to `Cc1c(-c2ncnc3[nH]ccc23)nnn1Cc1ccccc1OC(F)(F)F`, the figures for the inhibition in [1], in [2] and in assay [3] were 11.6%, 21.6% and 20.3%, respectively.
The matching figures for `Cc1c(-c2ncnc3[nH]ccc23)nnn1CCCc1ccc(I)cc1`: 49.7%, 61.7% and 52%.
The matching figures for `Cc1c(-c2ncnc3[nH]ccc23)nnn1CCc1ccc(OC(F)(F)F)cc1`: 3.7%, 17.3% and 20.3%.
Regarding `Cc1c(-c2ncnc3[nH]ccc23)nnn1CCc1ccc(I)cc1`, the inhibition in [1] came to 19.7%; in assay [2], 54.7%.

The record behind these values is ChEMBL document CHEMBL5131403, “Synthesis and structure-activity relationship studies of 1,5-isomers of triazole-pyrrolopyrimidine as selective Janus kinase 1 (JAK1) inhibitors” (Bioorg Med Chem Lett, 2022).
